Source: patent publication US10596153B2, “Antimicrobial agents and the method of synthesizing the antimicrobial agents” (Arkansas State University—Jonesboro, priority 2016, dated 2020)
Where two headings read alike, the source gives them in different places.

Assays:
Assay in all cases: Disk diffusion assay, zone of inhibition
Type in all cases: cell-based
[1] = test system: Staphylococcus aureus ATCC 25923
Experimental: (§1) Bacteria were streaked onto Tryptic Soy Agar plates and incubated overnight at 35° C. Bacteria were suspended in sterile saline to the turbidity of a 0.5 McFarland standard then swabbed onto Mueller Hinton Agar plates to create lawns. Test compounds were dissolved in DMSO at a concentration of 0.1 M, and 10 μL of each were pipetted onto 6 mm diameter glass fiber disks placed on the lawns. Plates were incubated for 20-24 hours at 35° C. after which zones of inhibition (diameters in mm) were measured for each test compound.

[2] = test system: Bacillus subtilis ATCC 6633
Experimental: as §1

[3] = test system: Pseudomonas aeruginosa ATCC 27853; details: N-arylamine derivatives; 10 μL of 0.1 M in DMSO on 6 mm disk; 20-24 hours at 35° C.; NA=No activity
Experimental: as §1

[4] = test system: Enterobacter aerogenes ATCC 13048; details: N-arylamine derivatives; 10 μL of 0.1 M in DMSO on 6 mm disk; 20-24 hours at 35° C.; NA=No activity
Experimental: as §1

[5] = ATCC25923, read-out: Zone of inhibition in mm, S a
[6] = ATCC6633, read-out: Zone of inhibition in mm, B s, N-arylamine derivatives, 10 μL of 0.1 M in DMSO on 6 mm disk, 20-24 hours at 35° C., NA=No activity
[7] = ATCC6633, read-out: Zone of inhibition in mm, B s, azomethines, 10 μL of 0.1 M in DMSO on 6 mm disk, 20-24 hours at 35° C., NA=No activity
[8] = ATCC25923, N-arylamine derivatives, 10 μL of 0.1 M in DMSO on 6 mm disk, 20-24 hours at 35° C., NA=No activity, read-out: Zone of inhibition in mm, S a
[9] = ATCC6633, N-arylamine derivatives, 10 μL of 0.1 M in DMSO on 6 mm disk, 20-24 hours at 35° C., NA=No activity, read-out: Zone of inhibition in mm, B s
[10] = ATCC6633, azomethines, 10 μL of 0.1 M in DMSO on 6 mm disk, 20-24 hours at 35° C., NA=No activity, read-out: Zone of inhibition in mm, B s

| SMILES | zone of inhibition at 100000 µM [1, 5] [mm] | zone of inhibition at 100000 µM [2, 6] [mm] | zone of inhibition at 100000 µM [2, 7] [mm] | zone of inhibition at 100000 µM [1, 8] [mm] | zone of inhibition at 100000 µM [2, 9] [mm] | zone of inhibition at 100000 µM [2, 10] [mm] | other results |
| --- | --- | --- | --- | --- | --- | --- | --- |
| Cc1ccc(F)cc1 [b] | 18 | 18 | 8 | – | – | – | – |
| COc1ccc(C)cc1 [g] | 15 | 14 | 10 | – | – | – | – |
| Cc1ccc(Oc2ccccc2)cc1 [h] | – | – | – | 11 | 12 | – | – |
| Cc1ccc(C(C)(C)C)cc1 [f] | – | – | – | 8 | 14 | 8 | – |
| Cc1ccc(Cl)cc1 [c] | – | – | – | 18 | 18 | 9 | – |
| Cc1ccc(C)cc1 [e] | 17 | 18 | 8 | – | – | – | – |
| Cc1ccccc1 [a] | 20 | – | 8 | – | – | – | – |
| O=C(N[C@H](CO)[C@H](O)c1ccc([N+](=O)[O-])cc1)C(Cl)Cl [Chloramphenicol] | – | – | – | – | – | – | Zone of inhibition in mm, P a [3]: 8 mm; Zone of inhibition in mm, E a [4]: 28 mm |
| Cc1ccc(Br)cc1 [d] | – | – | – | 9 | 8 | 8 | – |
